Measured values taken from patent US4835160A, “Derivatives of pyridoindole, having anti-tumor properties” (Sanofi, priority 1986, dated 1989).
pIC50: −log10 of the molar value.

Key:
in vivo = assay: in vivo; parameters: species or system CDF1 hybrid mice; settings: mouse, ip
From the text: The compounds of the invention benefit from a good tolerance and a weak toxicity.
Thus the administration, to healthy CDF1 hybrid mice, in a single injection by intraperitoneal route, of the compounds under test, has enabled it to be established that the product is perfectly tolerated at a high dosage since the survival rate of the animals of the experiment was 100 out of 100 thirteen days after administration.

leukemia P 388 = assay: Test of leukemia P 388; IP/IP, D1-5; type: in vivo, CDF1 hybrid mice; settings: D1-D5; for Number of survivors: day D30; for T/C %: survival time
Description: (2) In vivo: (GERAN et al., Cancer Chemother., 1972, 2, 07-57):
(§1) The antitumour activity was tested in vivo on various tumours inoculated in various ways according to the following general protocol:
(§2) All the male or female mice are inoculated on day D0 with a known quantity of viable tumour cells for ascitic tumours or with a known tumour fragment for solid tumours.
(§3) They are then distributed into various groups. Each group, corresponding to the animals treated by the product under test, is made up of 10 mice. The product under test is dissolved in distilled water and it is administered n times (Dx-Dy), n, y, and x varying according to the protocol chosen, at the rate of 0.1 ml of solution per 10 g by weight of mice treated and at specific doses for each protocol.
(§4) The "negative control" group, corresponding to the animals which are not treated by the product, contains 2√N animals, N being equal to or greater than the total number of mice treated by the product in the same experiment.
(§5) Finally, the tests can also be carried out at the same time as the study of a group called "positive control", of ten animals, which is treated by a molecule, known for its antitumour activity and which can vary according to the protocol chosen, in the same conditions as the groups treated by the product under test.
(§6) The antitumour activity is evaluated, in the case of ascitic tumours, by considering the increase in the survival time of the animals treated in comparison to that of the animals in the "negative control" group, according to the formula: [formula]
The criterion for activity varies according to the protocol.
(§7) Also, a product is considered as toxic at the dose studied when this T/C value is equal to or less than 85%. In addition, a product is also considered as toxic at the dose studied when the weight variation, expressed in grams and calculated by the formula: […]
"Average weight of the group measured on day 5--Average weight of the same group measured on day 1"
is equal to or less than 4 g.
(a) Test of lelukemia P 388; IP/IP, D1-5 (GERAN et al., Cancer Chemother., 1972, 2, 07-57).
The tests are carried out with CDF1 hybrid mice inoculated by intraperitoneal route with 10^6 leukemia cells from the P 388 line. The compound under test is administered for 5 successive days (D1-D5) by intraperitoneal route. The positive control for the test is 5-fluorouracile which is administered in the same conditions. The number of surviving animals is evaluated on day D30.

reticulosarcoma M5-M5076 = assay: Test for reticulosarcoma M5-M5076; type: in vivo, BDF1 hybrid mice; settings: 50 mg/kg IP, D1,5,9,13,17
Description: as §1, §2, §3, §4, §5, §6, §7
The tests are carried out with BDF1 hybrid mice inoculated by intraperitoneal route with 10^6 cells of the M5-M5076 line. The compound under test is administered 5 times successively in sequence (D1,5,9,13,17) by intraperitoneal route. The positive control for the test is cyclophosphamide administered in the same conditions. The number of surviving animals is evaluated on day D75.

melanoma B 16 = assay: Test for melanoma B 16; type: in vivo, BDF1 hybrid mice; settings: D1-D9; for Number of survivors: day D60; for T/C %: survival time
Description: as §1, §2, §3, §4, §5, §6, §7
(d) Test for melanoma B 16 (GERAN et al., Cancer Chemother., 1972, 2, 07-75).
The tests are carried out with BDF1 hybrid mice inoculated by intraperitoneal route with 0.5 ml of a homogenate of melanoma B 16 made up from 1 g of tumour in 10 ml of physiological serum. The compound under test is administered for 9 days (D1-D9) by intraperitoneal route. The positive control for the test is Cis-Platine administered in the same conditions. The number of surviving animals is evaluated on day D60.

[1] = system: leukemia tumour line L 1210; assay: In vitro cytotoxic activity on leukemia tumour line L 1210; type: cell-based; settings: Mus musculus, L1210, 48 h, L 1210, 48 hours contact, 37° C.; read-out: I D 50 (concentration which inhibits the proliferation of the cells by 50%)
Description: (1) In vitro: ([…] et al., Chem. Biol. Interaction, 1979, 25, 45-58). The cytotoxic activity of the compounds of the invention has been evaluated by in vitro tests. These tests consist of adding increasing concentrations of the compound under test to a cellular culture of the leukemia tumour line L 1210 in an exponential phase of growth. The cellules are incubated at 37° C. in a CO2 incubator and counted every 24 hours. The calculation of the I D 50 (concentration of the product, expressed in 1^-1 micromole, which inhibits the proliferation of the cells by 50%) is made after 48 hours contact.

Compound: CCN(CC)CCCNc1ncc(C)c2[nH]c3ccccc3c12 [Derivative No. 1, 1-(3-diethylaminopropylamino) 4-methyl-5H-pyrido-[4,3-b]indole]
- survival at 312 h (in vivo; 100 mg/kg): 100%
- Median day of survival (leukemia P 388; 10 mg/kg IP): 15.7 days
- Variation by weight (leukemia P 388; 10 mg/kg IP): -0.9 g
- Number of survivors (leukemia P 388; 10 mg/kg IP): 0/10
- T/C % (leukemia P 388; 10 mg/kg IP): 130%
- Median day of survival (leukemia P 388; 50 mg/kg IP): 21.0 days
- Variation by weight (leukemia P 388; 50 mg/kg IP): -2.6 g
- Number of survivors (leukemia P 388; 50 mg/kg IP): 0/10
- T/C % (leukemia P 388; 50 mg/kg IP): 174%
- Median day of survival (reticulosarcoma M5-M5076): 32.7 days
- Variation by weight (reticulosarcoma M5-M5076): -0.6 g
- Number of survivors (reticulosarcoma M5-M5076; day D75): 0/10
- T/C % (reticulosarcoma M5-M5076; survival time): 130%

Compound: CCN(CC)CCCNc1ncc(C)c2[nH]c3ccc(OC)cc3c12 [Derivative No. 4, 1-(3-diethylaminopropylamino)-8-methoxy-4-methyl-5H-pyrido[4,3-b]indole]
- Median day of survival (melanoma B 16; 5 mg/kg IP): 29.0 days
- Variation by weight (melanoma B 16; 5 mg/kg IP): -1.9 g
- Number of survivors (melanoma B 16; 5 mg/kg IP): 0/10
- T/C % (melanoma B 16; 5 mg/kg IP): 135%
- pIC50 [1]: 6.52
- survival at 312 h (in vivo; 50 mg/kg): 100%
- Median day of survival (leukemia P 388; 5 mg/kg IP): 14.0 days
- Variation by weight (g) (leukemia P 388; 5 mg/kg IP): +1.1 g
- Number of survivors (leukemia P 388; 5 mg/kg IP): 0/10
- T/C % (leukemia P 388; 5 mg/kg IP): 121%
- Median day of survival (leukemia P 388; 10 mg/kg IP): 17.0 days
- Variation by weight (g) (leukemia P 388; 10 mg/kg IP): +0.7 g
- Number of survivors (leukemia P 388; 10 mg/kg IP): 0/10
- T/C % (leukemia P 388; 10 mg/kg IP): 147%
- Median day of survival (leukemia P 388; 20 mg/kg IP): 17.25 days
- Variation by weight (leukemia P 388; 20 mg/kg IP): -0.9 g
- Number of survivors (leukemia P 388; 20 mg/kg IP): 0/10
- T/C % (leukemia P 388; 20 mg/kg IP): 149%
- Median day of survival (leukemia P 388; 40 mg/kg IP): 20.3 days
- Variation by weight (leukemia P 388; 40 mg/kg IP): -3.4 g
- Number of survivors (leukemia P 388; 40 mg/kg IP): 0/10
- T/C % (leukemia P 388; 40 mg/kg IP): 176%
- Median day of survival (leukemia P 388; 80 mg/kg IP): 6.6 days
- Variation by weight (leukemia P 388; 80 mg/kg IP): -4.8 g
- Number of survivors (leukemia P 388; 80 mg/kg IP): 0/10
- T/C % (leukemia P 388; 80 mg/kg IP): 57%

Compound: Cc1cnc(NCCCN(C)C)c2c1[nH]c1ccc(O)cc12 [Derivative No. 9, 1-(3-dimethylaminopropylamino)-8-hydroxy-4-methyl-5H-pyrido[4,3-b]indole]
- Median day of survival (melanoma B 16; 0.625 mg/kg IP): 28 days
- Variation by weight (g) (melanoma B 16; 0.625 mg/kg IP): +1.3 g
- Number of survivors (melanoma B 16; 0.625 mg/kg IP): 0/10
- T/C % (melanoma B 16; 0.625 mg/kg IP): 118%
- Median day of survival (melanoma B 16; 1.25 mg/kg IP): 33.0 days
- Variation by weight (g) (melanoma B 16; 1.25 mg/kg IP): +0.1 g
- Number of survivors (melanoma B 16; 1.25 mg/kg IP): 1/10
- T/C % (melanoma B 16; 1.25 mg/kg IP): 139%
- Median day of survival (melanoma B 16; 2.5 mg/kg IP): 31.25 days
- Variation by weight (g) (melanoma B 16; 2.5 mg/kg IP): +0.8 g
- Number of survivors (melanoma B 16; 2.5 mg/kg IP): 1/10
- T/C % (melanoma B 16; 2.5 mg/kg IP): 131%
- pIC50 [1]: 7.05

Compound: Cc1cnc(NCCCN(C)C)c2c3ccccc3n(C)c12.Cl.Cl [Derivative No. 17, 4,5-dimethyl 1-(3-dimethylaminopropylamino)-5H-pyrido[4,3-b]indole dihydrochloride]
- pIC50 [1]: 6.46
- Median day of survival (leukemia P 388; 24 mg/kg IP): 15.4 days
- Variation by weight (leukemia P 388; 24 mg/kg IP): 0.0 g
- Number of survivors (leukemia P 388; 24 mg/kg IP): 0/10
- T/C % (leukemia P 388; 24 mg/kg IP): 131%

Compound: CCN(CC)CCNc1ncc(C)c2c1c1cc(O)ccc1n2C.Cl.Cl [Derivative No. 19, 1-(2-diethylaminoethylamino)-4,5-dimethyl-8-hydroxy-5H-pyrido[4,3-b]indole dihydrochloride]
- pIC50 [1]: 6.82
- Median day of survival (leukemia P 388; 5 mg/kg IP): 15.3 days
- Variation by weight (g) (leukemia P 388; 5 mg/kg IP): +0.5 g
- Number of survivors (leukemia P 388; 5 mg/kg IP): 0/6
- T/C % (leukemia P 388; 5 mg/kg IP): 142%
- Median day of survival (leukemia P 388; 10 mg/kg IP): 17.0 days
- Variation by weight (leukemia P 388; 10 mg/kg IP): -0.2 g
- Number of survivors (leukemia P 388; 10 mg/kg IP): 0/6
- T/C % (leukemia P 388; 10 mg/kg IP): 153%
- Median day of survival (leukemia P 388; 20 mg/kg IP): 20.3 days
- Variation by weight (g) (leukemia P 388; 20 mg/kg IP): +0.3 g
- Number of survivors (leukemia P 388; 20 mg/kg IP): 0/6
- T/C % (leukemia P 388; 20 mg/kg IP): 182%
- Median day of survival (leukemia P 388; 40 mg/kg IP): 15.3 days
- Variation by weight (leukemia P 388; 40 mg/kg IP): -2.1 g
- Number of survivors (leukemia P 388; 40 mg/kg IP): 0/6
- T/C % (leukemia P 388; 40 mg/kg IP): 137%
